# Measured values as given in patent US12339274B2, “Blood coagulometer and method” (priority 2016, dated 2025).
# Where two headings read alike, the source gives them in different places.
# Test system: human whole blood
# Type: cell-based
# Text: One or more samples of human whole blood were collected by a licensed medical doctor from a healthy volunteer known to refrain from the taking of anticoagulant medications such as, for example, aspirin. Written informed consent of the donors was collected under an approved protocol from the Internal Review Board at the UT Health Science Center. Human whole blood was collected, by antecubital venipuncture, into vials 12 containing the anticoagulant sodium citrate (3.8%, applied at a 9:1 blood to citrate ratio).
# Embodiments of the apparatus 10 of the present invention may also be used to characterize clot contraction. […] The test volume was 27 μL; however, to ensure filling of the test chamber and complete immersion within the blood sample 50 of the wetted portion 24/plate 15 of the probe 20 disposed within the vial 15, a volume of 250 μL of blood was injected into a vial 15 comprising glass. Data recording began once the wetted portion 24/plate 15 was lowered into position such that it was immersed within the blood sample 50 and was 1 mm away from the lower member 50, both of which comprised acrylic. Deflection of the wire portion 21 of the probe 20 typically began after 360 to 480 seconds, and data collection was concluded after 3,600 seconds (1 hour).
SMILES,contraction force (increasing concentrations in human whole blood),"contraction force (1 mMol in human whole blood, FIG. 41)","contraction force (60 mMol in human whole blood, FIG. 41)"
C=C1[C@@H](C)[C@H]2[C@H](Cc3ccccc3)NC(=O)[C@]23[C@H](OC(C)=O)/C=C/[C@@](C)(O)C(=O)[C@@H](C)C/C=C/[C@H]3[C@@H]1O [cytochalasin D],dose-dependent decrease,–,–
c1nnn[nH]1 [tetrazole],–,enhanced contraction force,reduced contraction force
